Measurements as given in paper PMC10041525, “New Dual Inhibitors of Bacterial Topoisomerases with Broad-Spectrum Antibacterial Activity and In Vivo Efficacy against Vancomycin-Intermediate Staphylococcus aureus” (Journal of Medicinal Chemistry, 2023).
Values after ≈ are worked out from the molar mass of the structure shown. Read-outs that look alike come from different tables or passages of the source.

Experiments:
[1] = system: 100 A. baumannii strains (50 MDR, 50 non-MDR); experiment: MIC broth microdilution at IHMA Europe, panel of 100 strains; format: cell-based; details: for MIC / MIC50 / MIC90: Acinetobacter baumannii; for MIC50: read-out: MIC 50; for MIC90: read-out: MIC 90
[2] = system: 3 sensitive and 7 MDR A. baumannii clinical isolates; experiment: MIC, Hungarian clinical isolates and controls (384-well); format: cell-based; details: n=10

C[C@@H](O)[C@H]1C(=O)N2C(C(=O)O)=C(SCCNC=N)C[C@H]12 [Imipenem, imipenem]
MIC ([1]; A. baumannii IHMA 2177489, Lithuania 2020, MDR, read-out: MIC): > 16 µg/mL | MIC ([1]; A. baumannii IHMA 2178574, Ukraine 2020, Non-MDR, read-out: MIC): ≤ 0.25 µg/mL | MIC ([1]; A. baumannii IHMA 2180134, Malaysia 2020, Non-MDR, read-out: MIC): ≤ 0.25 µg/mL | MIC ([1]; A. baumannii IHMA 2180142, Malaysia 2020, MDR, read-out: MIC): 16 µg/mL (≈ 53.4 µM) | MIC ([1]; A. baumannii IHMA 2181370, Morocco 2020, MDR, read-out: MIC): > 16 µg/mL | MIC ([1]; A. baumannii IHMA 2183729, Argentina 2020, MDR, read-out: MIC): 16 µg/mL (≈ 53.4 µM) | MIC ([1]; A. baumannii IHMA 2183849, Argentina 2020, Non-MDR, read-out: MIC): ≤ 0.25 µg/mL | MIC ([1]; A. baumannii IHMA 2184382, Japan 2020, Non-MDR, read-out: MIC): ≤ 0.25 µg/mL | MIC ([1]; A. baumannii IHMA 2193375, Venezuela 2020, MDR, read-out: MIC): > 16 µg/mL | MIC ([1]; A. baumannii IHMA 2193485, Venezuela 2020, Non-MDR, read-out: MIC): ≤ 0.25 µg/mL | MIC ([1]; A. baumannii IHMA 2193607, Venezuela 2020, MDR, read-out: MIC): > 16 µg/mL | MIC ([1]; A. baumannii IHMA 2195460, Italy 2020, MDR, read-out: MIC): > 16 µg/mL | MIC ([1]; A. baumannii IHMA 2196914, South Africa 2020, MDR, read-out: MIC): > 16 µg/mL | MIC ([1]; A. baumannii IHMA 2196959, South Africa 2020, MDR, read-out: MIC): > 16 µg/mL | MIC ([1]; A. baumannii IHMA 2203763, Spain 2020, MDR, read-out: MIC): > 16 µg/mL | MIC ([1]; A. baumannii IHMA 2205144, Korea, South 2020, MDR, read-out: MIC): > 16 µg/mL | MIC ([1]; A. baumannii IHMA 2206459, Taiwan 2020, MDR, read-out: MIC): > 16 µg/mL | MIC ([1]; A. baumannii IHMA 2206507, Taiwan 2020, Non-MDR, read-out: MIC): ≤ 0.25 µg/mL | MIC ([1]; A. baumannii IHMA 2212575, Hungary 2020, Non-MDR, read-out: MIC): ≤ 0.25 µg/mL | MIC ([1]; A. baumannii IHMA 2215307, Hong Kong 2020, Non-MDR, read-out: MIC): ≤ 0.25 µg/mL | MIC ([1]; A. baumannii IHMA 2216586, Taiwan 2020, MDR, read-out: MIC): > 16 µg/mL | MIC ([1]; A. baumannii IHMA 2223200, Colombia 2020, Non-MDR, read-out: MIC): ≤ 0.25 µg/mL | MIC ([1]; A. baumannii IHMA 2224017, Panama 2020, MDR, read-out: MIC): > 16 µg/mL | MIC ([1]; A. baumannii IHMA 2224303, Panama 2020, Non-MDR, read-out: MIC): ≤ 0.25 µg/mL | MIC ([1]; A. baumannii IHMA 2231797, Greece 2020, MDR, read-out: MIC): > 16 µg/mL | MIC ([1]; A. baumannii IHMA 2233099, Guatemala 2020, MDR, read-out: MIC): > 16 µg/mL | MIC ([1]; A. baumannii IHMA 2233430, Kazakhstan 2020, MDR, read-out: MIC): > 16 µg/mL | MIC ([1]; A. baumannii IHMA 2233548, Kazakhstan 2020, Non-MDR, read-out: MIC): ≤ 0.25 µg/mL | MIC ([1]; A. baumannii IHMA 2238964, Thailand 2020, MDR, read-out: MIC): > 16 µg/mL | MIC ([1]; A. baumannii IHMA 2239052, Thailand 2020, Non-MDR, read-out: MIC): ≤ 0.25 µg/mL | MIC ([1]; A. baumannii IHMA 2261047, Belgium 2020, MDR, read-out: MIC): > 16 µg/mL | MIC ([1]; A. baumannii IHMA 2261633, Canada 2020, Non-MDR, read-out: MIC): ≤ 0.25 µg/mL | MIC ([1]; A. baumannii IHMA 2274234, South Africa 2020, MDR, read-out: MIC): > 16 µg/mL | MIC ([1]; A. baumannii IHMA 2274364, South Africa 2020, MDR, read-out: MIC): > 16 µg/mL | MIC ([1]; A. baumannii IHMA 2275237, Chile 2020, Non-MDR, read-out: MIC): ≤ 0.25 µg/mL | MIC ([1]; A. baumannii IHMA 2275751, Jordan 2020, MDR, read-out: MIC): > 16 µg/mL | MIC ([1]; A. baumannii IHMA 2316205, United States 2020, MDR, read-out: MIC): > 16 µg/mL | MIC ([1]; MDR n = 50, read-out: MAX (maximum MIC; all strains inhibited)): > 16 µg/mL | MIC50 ([1]; MDR n = 50): > 16 µg/mL | MIC90 ([1]; MDR n = 50): > 16 µg/mL | MIC ([1]; MDR n = 50, read-out: MIN (minimum MIC)): 16 µg/mL (≈ 53.4 µM) | MIC ([1]; all isolates n = 100, read-out: MAX (maximum MIC; all strains inhibited)): > 16 µg/mL | MIC50 ([1]; all isolates n = 100): 0.5 µg/mL (≈ 1.67 µM) | MIC90 ([1]; all isolates n = 100): > 16 µg/mL | MIC ([1]; all isolates n = 100, read-out: MIN (minimum MIC)): ≤ 0.25 µg/mL | MIC ([1]; non-MDR n = 50, read-out: MAX (maximum MIC)): 0.5 µg/mL (≈ 1.67 µM) | MIC50 ([1]; non-MDR n = 50): ≤ 0.25 µg/mL | MIC90 ([1]; non-MDR n = 50): ≤ 0.25 µg/mL | MIC ([1]; non-MDR n = 50, read-out: MIN (minimum MIC)): ≤ 0.25 µg/mL | Percentage I ([1]; MDR n = 50): 0% | Percentage R ([1]; MDR n = 50): 100% | Percentage S ([1]; MDR n = 50): 0% | Percentage I ([1]; all n = 100, CLSI breakpoints): 0% | Percentage R ([1]; all n = 100, CLSI breakpoints): 50% | Percentage S ([1]; all n = 100, CLSI breakpoints): 50% | Percentage I ([1]; non-MDR n = 50): 0% | Percentage R ([1]; non-MDR n = 50): 0% | Percentage S ([1]; non-MDR n = 50): 100% | Cumulative % at MIC ([2]; MIC 0.5 µg/mL): 20% | Cumulative % at MIC ([2]; MIC 1 µg/mL): 30% | Cumulative % at MIC ([2]; MIC 64 µg/mL): 60% | Cumulative % at MIC ([2]; MIC 128 µg/mL): 80% | Cumulative % at MIC ([2]; MIC 256 µg/mL): 100%
